Where a name gives a salt, the structure may show the parent alone.
Assay: in vitro release of naltrexone from drug delivery devices (Example 1)
Assay type: physicochemical
Settings: porous membrane about 5-20 mm^2 diffusible area, approximately 70% porosity; phosphate buffer, 37° C.
From the text: Naltrexone base was compounded with anisic acid at acid:drug ratios of 0:[…] (molar basis), tableted with polyvinylpyrrolidone as a binder and stearic acid as a lubricant (12% and 2% of the final formulation mass, respectively), and loaded into delivery devices equipped with 0.1 micron polyvinylidene fluoride (DURAPORE®) membranes. In a subset of devices, approximately 75% of the available membrane surface area was blocked to measure the influence of surface area upon output rate. All devices were vacuum back-filled with phosphate buffer and transferred to jars containing a volume (˜100 mL) of the same buffer. The sealed jars were then incubated at 37° C., and small aliquots (˜500 μL) of receiving buffer were withdrawn at selected time points to quantify the released drug by high pressure liquid chromatography (HPLC).

Which “in vitro elution rate of naltrexone from device” value does the source give for `O=C1CC[C@@]2(O)[C@H]3Cc4ccc(O)c5c4[C@@]2(CCN3CC2CC2)[C@H]1O5` [naltrexone HCl] here?
Its value is “over 50 mg/day”.

Reference: patent US20220280503A1, “COMPOSITIONS OF OPIOID ANTAGONISTS, IMPLANT DEVICES, AND TREATMENT METHODS FOR OPIOID USE DISORDER” (Delpor, Inc., priority 2019, published 2022)
